How the values were obtained:
Experiment in all cases: relative viability (nuclei count vs DMSO), 5 days (fraction); higher = more cells survive
RERF-LC-KJ = tested on: RERF-LC-KJ
In short: (§1)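 Five library-drug doses in √10 steps were combined with a fixed anchor-drug dose, or a single drug was given alone, by pin tool to lung cancer cell lines in 1536-well plates the day after seeding. Nuclei were stained and counted after 5 days. Relative viability is the nuclei count in treated wells over that in vehicle wells, taken as the median of duplicate plates.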

NCI-H1734 = tested on: NCI-H1734
In short: as §1

NCI-H661 = tested on: NCI-H661
In short: as §1

NCI-H1975 = tested on: NCI-H1975
In short: as §1

NCI-H1650 = tested on: NCI-H1650
In short: as §1

LCLC-97TM1 = tested on: LCLC-97TM1
In short: as §1

NCI-H2228 = tested on: NCI-H2228
In short: as §1

HCC-827 = tested on: HCC-827
In short: as §1

PC-3 [JPC-3] = tested on: PC-3 [JPC-3]
In short: as §1

HCC-15 = tested on: HCC-15
In short: as §1

NCI-H1755 = tested on: NCI-H1755
In short: as §1

CAL-12T = tested on: CAL-12T
In short: as §1

H3255 = tested on: H3255
In short: as §1

NCI-H322M = tested on: NCI-H322M
In short: as §1

EKVX = tested on: EKVX
In short: as §1

PC-14 = tested on: PC-14
In short: as §1

NCI-H1355 = tested on: NCI-H1355
In short: as §1

NCI-H520 = tested on: NCI-H520
In short: as §1

NCI-H2342 = tested on: NCI-H2342
In short: as §1

NCI-H2405 = tested on: NCI-H2405
In short: as §1

LK-2 = tested on: LK-2
In short: as §1

Compound: COc1nc(C)cnc1NS(=O)(=O)c1cccnc1-c1ccc(-c2nnco2)cc1 [Zibotentan] + Cc1cc(Nc2cc(N3CCN(C)CC3)nc(Sc3ccc(NC(=O)C4CC4)cc3)n2)n[nH]1 [Tozasertib] (partner 0.1 µM)
- relative viability (RERF-LC-KJ; first compound 0.08 µM): 0.479
- relative viability (RERF-LC-KJ; first compound 0.8 µM): 0.562
- relative viability (RERF-LC-KJ; first compound 2.53 µM): 0.493
- relative viability (NCI-H1734; first compound 0.08 µM): 0.283
- relative viability (NCI-H1734; first compound 0.253 µM): 0.253
- relative viability (NCI-H1734; first compound 0.8 µM): 0.247
- relative viability (NCI-H1734; first compound 2.53 µM): 0.326
- relative viability (NCI-H661; first compound 0.08 µM): 0.369
- relative viability (NCI-H661; first compound 0.253 µM): 0.334
- relative viability (NCI-H661; first compound 0.8 µM): 0.347
- relative viability (NCI-H661; first compound 2.53 µM): 0.364
- relative viability (NCI-H1975; first compound 0.08 µM): 0.732
- relative viability (NCI-H1975; first compound 0.253 µM): 0.695
- relative viability (NCI-H1975; first compound 0.8 µM): 0.727
- relative viability (NCI-H1975; first compound 2.53 µM): 0.831
- relative viability (NCI-H1650; first compound 0.08 µM): 0.491
- relative viability (NCI-H1650; first compound 0.8 µM): 0.487
- relative viability (NCI-H1650; first compound 2.53 µM): 0.418
- relative viability (LCLC-97TM1; first compound 0.08 µM): 0.228
- relative viability (LCLC-97TM1; first compound 0.253 µM): 0.237
- relative viability (LCLC-97TM1; first compound 0.8 µM): 0.21
- relative viability (LCLC-97TM1; first compound 2.53 µM): 0.233
- relative viability (NCI-H2228; first compound 0.08 µM): 0.266
- relative viability (NCI-H2228; first compound 0.253 µM): 0.239
- relative viability (NCI-H2228; first compound 0.8 µM): 0.212
- relative viability (NCI-H2228; first compound 2.53 µM): 0.258
- relative viability (HCC-827; first compound 0.08 µM): 0.438
- relative viability (HCC-827; first compound 0.253 µM): 0.411
- relative viability (HCC-827; first compound 0.8 µM): 0.409
- relative viability (HCC-827; first compound 2.53 µM): 0.371
- relative viability (PC-3 [JPC-3]; first compound 0.08 µM): 0.869
- relative viability (PC-3 [JPC-3]; first compound 0.253 µM): 0.903
- relative viability (PC-3 [JPC-3]; first compound 0.8 µM): 0.853
- relative viability (PC-3 [JPC-3]; first compound 2.53 µM): 0.878
- relative viability (HCC-15; first compound 0.08 µM): 0.481
- relative viability (HCC-15; first compound 0.253 µM): 0.314
- relative viability (HCC-15; first compound 0.8 µM): 0.373
- relative viability (HCC-15; first compound 2.53 µM): 0.402
- relative viability (NCI-H1755; first compound 0.08 µM): 0.475
- relative viability (NCI-H1755; first compound 0.253 µM): 0.58
- relative viability (NCI-H1755; first compound 0.8 µM): 0.602
- relative viability (NCI-H1755; first compound 2.53 µM): 0.657
- relative viability (CAL-12T; first compound 0.08 µM): 0.268
- relative viability (CAL-12T; first compound 0.253 µM): 0.289
- relative viability (CAL-12T; first compound 0.8 µM): 0.351
- relative viability (CAL-12T; first compound 2.53 µM): 0.31
- relative viability (H3255; first compound 0.08 µM): 0.693
- relative viability (H3255; first compound 0.253 µM): 0.604
- relative viability (H3255; first compound 0.8 µM): 0.742
- relative viability (H3255; first compound 2.53 µM): 0.888
- relative viability (NCI-H322M; first compound 0.08 µM): 0.464
- relative viability (NCI-H322M; first compound 0.253 µM): 0.479
- relative viability (NCI-H322M; first compound 0.8 µM): 0.496
- relative viability (NCI-H322M; first compound 2.53 µM): 0.534
- relative viability (EKVX; first compound 0.08 µM): 0.414
- relative viability (EKVX; first compound 0.253 µM): 0.348
- relative viability (EKVX; first compound 0.8 µM): 0.365
- relative viability (EKVX; first compound 2.53 µM): 0.428
- relative viability (PC-14; first compound 0.08 µM): 0.555
- relative viability (PC-14; first compound 0.253 µM): 0.527
- relative viability (PC-14; first compound 0.8 µM): 0.583
- relative viability (PC-14; first compound 2.53 µM): 0.567
- relative viability (NCI-H1355; first compound 0.08 µM): 0.626
- relative viability (NCI-H1355; first compound 0.253 µM): 0.537
- relative viability (NCI-H1355; first compound 0.8 µM): 0.55
- relative viability (NCI-H1355; first compound 2.53 µM): 0.565
- relative viability (NCI-H520; first compound 0.08 µM): 0.431
- relative viability (NCI-H520; first compound 0.253 µM): 0.479
- relative viability (NCI-H520; first compound 0.8 µM): 0.441
- relative viability (NCI-H520; first compound 2.53 µM): 0.442
- relative viability (NCI-H2342; first compound 0.08 µM): 0.496
- relative viability (NCI-H2342; first compound 0.253 µM): 0.446
- relative viability (NCI-H2342; first compound 0.8 µM): 0.493
- relative viability (NCI-H2342; first compound 2.53 µM): 0.667
- relative viability (NCI-H2405; first compound 0.08 µM): 0.747
- relative viability (NCI-H2405; first compound 0.253 µM): 0.716
- relative viability (NCI-H2405; first compound 0.8 µM): 0.798
- relative viability (NCI-H2405; first compound 2.53 µM): 0.77
- relative viability (LK-2; first compound 0.08 µM): 0.148
- relative viability (LK-2; first compound 0.253 µM): 0.191
- relative viability (LK-2; first compound 0.8 µM): 0.166
- relative viability (LK-2; first compound 2.53 µM): 0.198
